Paper PMC9152369, “Integrated UPLC-Q-TOF-MS/MS and Network Pharmacology Approach to Investigating the Metabolic Profile of Marein of Coreopsis tinctoria Nutt” (Evidence-based Complementary and Alternative Medicine : eCAM, 2022)
Where “and” joins values, the source holds several entries; their conditions need not be identical. Identical values can stand only once. Entries after “also recorded” stand apart in the source; their conditions may differ.

Legend:
[1] = Detection of marein and metabolites in rat plasma and urine after tail vein injection (UPLC-Q-TOF-MS/MS); type: in vivo, Sprague–Dawley rats; design: key to Location (matrix in which the metabolite was detected): P: plasma; U: urine; conditions: for Location (matrix in which the metabolite was detected): tail vein injection of marein 10 mg/kg, plasma 0-1 h, urine 24 h; for prototype components after tail vein injection: tail vein injection 10 mg/kg
Protocol: (§1) Forty-eight healthy male Sprague–Dawley rats, SPF grade, weighing 250 ± 10 g, were purchased from Huafukang Laboratory Animal Technology Co. Ltd. (Beijing, China). Before use, all animals were reared for 5 days at a constant temperature of 25°C, a humidity of 40–60%, and a 12-hour light-dark cycle.
After adaptive feeding of 24 SD rats for 1 week, they were randomly divided into 4 groups, namely: blank blood sample group, blank urine group, marein blood sample group, and marein urine group. The experimental animals were fasted 12 hours before the administration and free drinking water. Marein was dissolved in appropriate amounts of saline and administered to SD rats via tail vein injection at a dose of 10 mg/kg. The blank group was injected with an equal volume of saline through the tail vein.
(§2) Blood samples were collected from the fundus venous plexus of rats at 0, 0.08, 0.25, 0.5, and 1 h before and after gavage and injection. The blood samples were centrifuged (9,900 g, 10 min) to obtain plasma samples. All plasma samples were stored at −80°C until they were processed and analyzed.
(§3) Urine samples were collected for 24 hours by gavage and injection in a metabolic cage. All urine samples were stored at −80°C until they were processed and analyzed.
(§4) Take 100 μL of plasma from each group at the same time point and combine, add 900 μL of acetonitrile, vortex for 3 min, and centrifuge (4°C, 19,500 g) for 10 min. Take the supernatant, blow-dry, and concentrate and then add 900 μL of acetonitrile. Vortex for 3 minutes and then centrifuge (4°C, 19,500 g) for 10 minutes. Take the supernatant, dry it with nitrogen, and concentrate. Add 100 μL of 50% methanol to reconstitute the residue (methanol:water = 1:1), vortex, and centrifuge (4°C, 19,500 g) for 10 minutes. The supernatant was taken and analyzed by UPLC-Q-TOF-MS/MS. The blank plasma sample was processed in the same way.
(§5) Take 400 μL of urine, add 800 μL of methanol, vortex for 3 minutes, and centrifuge (4°C, 19,500 g) for 10 minutes. Take the supernatant, blow-dry, and concentrate and then add 800 μL of methanol to reconstitute, vortex for 3 minutes, and centrifuge (4°C, 19,500 g) for 10 minutes. In parallel, the supernatants were combined, dried, concentrated with nitrogen, and finally reconstituted with 100 μL 50% methanol (methanol:water = 1:1). The supernatant was analyzed by UPLC-Q-TOF-MS/MS. The blank urine sample was processed in the same way.
(§6) Used UPLC-Q-TOF-MS/MS 9030 system (Shimadzu, Japan), chromatography column: Shim-pack GISS C18 column (100 × 2.1 mm, 1.9 μm). Mobile phase: A phase 0.1% formic acid water, B phase acetonitrile, gradient elution, elution gradient: 0∼1 min, 5∼10% B; 1∼2 min, 10% B; 2∼3 min, 10∼15% B; 3∼5 min, 15∼20% B; 5∼11 min, 20∼40% B; 11∼13 min, 40∼80% B; 13∼15 min, 80∼95% B; 15∼17 min, 95% B; 17∼20 min, 5% B. Flow rate: 0.3 mL/min; column temperature: 40°C.
(§7) MS operation conditions were as follows. The Q-TOF-MS spectrometer was configured with an electrospray ion source (ESI) operating in the negative and positive ion modes. Ion source interface voltage is −3.0 Kv. Nitrogen is used as the drying gas and the atomizing gas. The drying gas flow rate is set to 10 L/min, and the atomizing gas flow rate is set to 3.0 L/min. Air is used as heating gas, and the flow rate is set to 10 L/min; argon is used as collision gas; desolvent tube temperature is 250°C; heating block temperature is 400°C; and interface temperature is 300°C. Scan modes are MS Scan (m/z 100–500; 500–1,000) and MS/MS (m/z 50–500; 50–1,000). The collision energy (CE) is 35 ± 17 V.
(§8) The data obtained by UPLC-Q-TOF-MS/MS were analyzed with Formula Predictor Server software. Target fragments are analyzed by ACD/Labs software accurate mass calculator (Shimadzu City, Japan).

[2] = Detection of marein and metabolites in rat plasma and urine after oral administration (UPLC-Q-TOF-MS/MS); type: in vivo, Sprague–Dawley rats; design: key to Location (matrix in which the metabolite was detected): P: plasma; U: urine; conditions: for Location (matrix in which the metabolite was detected): oral gavage of marein 200 mg/kg, plasma 0-1 h, urine 24 h
Protocol: as §1
After adaptive feeding for 1 week, 24 SD rats were randomly divided into 4 groups: blank blood sample group, blank urine group, marein blood sample group, and marein urine group. The experimental animals were fasted 12 hours before the administration and free drinking water. Marein was dissolved with an appropriate amount of CMC-Na solution and was administered to SD rats by gavage at a dose of 200 mg/kg. The blank blood sample group was given an equal volume of CMC-Na solution.
as §2, §3, §4, §5
Used UPLC-Q-TOF-MS/MS 9030 system (Shimadzu, Japan), chromatography column: Shim-pack GISS C18 column (100 × 2.1 mm, 1.9 μm). […]
as §8

[3] = Metabolic stability of marein in rat liver microsome incubation; type: in vitro ADME; conditions: for Area% (remaining percentage): 37°C, NADPH
Protocol: The total volume of the incubation system is 500 μL, including phosphate buffer (0.1 M, pH 7.4) 470 μL, and NADPH generating system 30 μL (Solution A: 25 μL and Solution B: 5 μL). The process is completed on an ice bath.
Marein blank control group: Take the above incubation system, add 5 μL of aqueous solution to an ice bath, incubate at 37°C for 5 min, and then add 15 μL of liver microsomes to the ice bath. After gently mixing the incubation system by hand, start the incubation at 37°C in a water bath. The incubation time is 0, 5, 15, 30, 45, 60, 90, and 120 min, and each sample is paralleled 3 times. When the reaction is complete, stop the reaction with the same volume of ice acetonitrile to completely precipitate the protein, centrifuge at 4,200 g for 10 min, aspirate the supernatant and centrifuge at 19,500 g for 10 min, and inject 2 μL for analysis.
Marein inactivated liver microsomes group: First inactivate liver microsomes, take the incubation system, add 5 μL of the marein reference substance stock solution on an ice bath, incubate at 37°C for 5 min, and then add 15 μL of inactivation to the ice bath. The following procedures were similar to the blank control group.
Marein liver microsomes group: Take the incubation system, add 5 μL of the marein reference substance stock solution to an ice bath, incubate at 37°C for 5 min, and then add 15 μL of liver microsomes to the ice bath. The following operation was the same as the blank control group.
as §6, §7
In the study of metabolism in vivo, the injection volume was 5 μL, while that in vitro metabolism was 2 μL.
In the liver microsomes study, the 0 min peak area of marein was regarded as 100%, and other time points were compared with the 0 min peak area to obtain the remaining percentage (area%). According to the natural logarithm of area% and incubation, the time slope k was obtained by linear regression. According to formula (1), the half-life t1/2/min of marein in liver microsomes could be obtained. According to formulas (2)–(5), the half-lives in liver microsomes, intrinsic clearance rate CLint, in vivo intrinsic clearance rate CL′int, liver clearance rate CLH, and liver extraction rate ER were calculated.(1) t1/2=−0.693/k, (2) CLint=0.693/t1/2incubationmL/microsomesmg, (3) CLint′=0.693/t1/2·incubationmL/microsomesmg·Liverg/BWkg·microsmesmg/Liverg, (4) CLH=Q·CLint′/Q+CLint′, (5) ER=CLH/Q.
The physical and chemical parameters: The liver tissue per kilogram of body weight for rat (Liver (g)/BW (kg)) was 40 g. Q is hepatic blood flow (66 ml/min/kg for rat), and CL′int is the intrinsic clearance. The microsomal protein per gram of liver tissue (microsomes (mg)/liver (g)) was 45 mg.

[4] = design: method as in PMID 27387397; conditions: healthy volunteers, tea of C. tinctoria; cited from earlier work

With `O=c1cc(-c2ccc(O)c(O)c2)oc2c(O)c(O[C@@H]3O[C@H](CO)[C@@H](O)[C@H](O)[C@H]3O)ccc12` [M13] the “Location (matrix in which the metabolite was detected)” value (“Location” for short) ([1]; listed as M′10) was “P, U” and the “Location” value [2] was “P”.

With `O=C(/C=C/c1ccc(O)c(O)c1)c1ccc(O)c(O)c1O` [M24, okanin] the “Location” value [1] was “U” and the “Location” value [2] was “P”.

In the case of `O=C1C[C@@H](c2ccc(O)c(O)c2)Oc2c1ccc(O[C@@H]1O[C@H](CO)[C@@H](O)[C@H](O)[C@H]1O)c2O` [M′1, flavanomarein], the “prototype components after tail vein injection” value [1] is reported as “detected” and the “Location” value [1] is reported as “P, U”.

For `O=C(/C=C/c1cccc(O)c1)c1ccc(O[C@@H]2O[C@H](CO)[C@@H](O)[C@H](O)[C@H]2O)c(O)c1O` [M′11], the “Location” value [1] was “U”.

For `O=C(/C=C/c1ccc(O)cc1)c1ccc(O[C@@H]2O[C@H](CO)[C@@H](O)[C@H](O)[C@H]2O)c(O)c1O` [M′12], the “Location” value [1] was “U”.

In the case of `O=C(/C=C/c1ccc(O)c(O)c1)c1ccc(O[C@@H]2O[C@H](CO)[C@@H](O)[C@H](O)[C@H]2O)cc1O` [M′13], the “Location” value [1] is reported as “P, U”.

In the case of `O=C(CCc1ccccc1)c1ccc(O[C@@H]2O[C@H](CO)[C@@H](O)[C@H](O)[C@H]2O)c(O)c1O` [M′17], the “Location” value [1] is reported as “U”.

For `O=C(/C=C/c1ccc(O)c(O)c1)c1ccc(O[C@@H]2O[C@H](CO)[C@@H](O)[C@H](O)[C@H]2O)c(O)c1O` [marein], the “CLint (intrinsic clearance rate)” value ([3]; SD rat liver microsomes) was 0.0065 mL·(min·mg protein)^−1, the “t1/2 (in vitro metabolic half-life in liver microsomes)” value ([3]; SD rat liver microsomes) was 2.961538 h and the “ER (liver extraction rate)” value ([3]; SD rat, ER=CLH/Q) was 0.15 and 0.1506. For the same molecule, the “CLH (liver clearance rate)” value ([3]; SD rat, Q 66 ml/min/kg) was 9.9382 mL·min/kg, the “CL′int (in vivo intrinsic clearance rate)” value ([3]; SD rat, scaled with 40 g liver/kg, 45 mg microsomal protein/g liver) was 11.7000 mL·min/kg and the half-life ([3]; SD, rat, liver microsomes, pH 7.4, SD rat liver microsomes, read-out: t1/2 (in vitro metabolic half-life in liver microsomes)) was 2.96 h. For the same molecule, the “Ln (area%)” value ([3]; incubation 0 min) was 4.61, the “Area% (remaining percentage)” value ([3]; incubation 0 min, 0 min regarded as 100%) was 100% and the “Ln (area%)” value ([3]; incubation 5 min) was 4.59. For the same molecule, the “Area% (remaining percentage)” value ([3]; incubation 5 min) was 98.69%, the “Ln (area%)” value ([3]; incubation 15 min) was 4.46 and the “Area% (remaining percentage)” value ([3]; incubation 15 min) was 86.70%. The “Ln (area%)” value ([3]; incubation 30 min) was 4.41, the “Area% (remaining percentage)” value ([3]; incubation 30 min) was 82.34% and the “Ln (area%)” value ([3]; incubation 45 min) was 4.36. The “Area% (remaining percentage)” value ([3]; incubation 45 min) was 77.93%, the “Ln (area%)” value ([3]; incubation 60 min) was 4.22 and the “Area% (remaining percentage)” value ([3]; incubation 60 min) was 68.01%. For the same molecule, the “Ln (area%)” value ([3]; incubation 90 min) was 4.21, the “Area% (remaining percentage)” value ([3]; incubation 90 min) was 67.21% and the “Ln (area%)” value ([3]; incubation 120 min) was 4.14. The “Area% (remaining percentage)” value ([3]; incubation 120 min) was 62.76%, the “metabolic stability in liver microsomes” value ([3]; rat liver microsomes) was “good” and the “marein in blood after drinking C. tinctoria tea” value [4] was “no marein is detected”. The “prototype components after tail vein injection” value [1] was “detected”, the “Location” value [1] was “P, U” and the “prototype in plasma and urine after gavage” value ([2]; oral gavage 200 mg/kg, 200 mg/kg) was “no prototype components were found; also recorded: not detected in the original form”. The “marein in plasma after intragastric administration” value ([2]; preliminary experiments of the team) was “no marein was found in plasma”.
